Usually IC50 stands for the concentration needed to halve the response being measured. What is called inhibition is how much of the control response was suppressed. The low end stands for a weak effect, the high end for a strong effect.

This note sets out measurements from ChEMBL document CHEMBL2029240 (ACS Med Chem Lett, 2011).

The target in data set [1] is T1, C-C chemokine receptor type 2 (Homo sapiens, UniProt P41597).
Description: Displacement of [125I]MCP1 from human CCR2 in PBMC after 30 mins by gamma counting
Data set [2] concerns the target Voltage-gated inwardly rectifying potassium channel KCNH2 (Homo sapiens, UniProt Q12809). The data set can be described thus: Displacement of [3H]dofetilide from human ERG. Background: Displacement assays read how much labelled ligand stays bound in the presence of the test substance.
A further data set concerns the target hERG (KCNH2) (Homo sapiens, UniProt Q12809). The data set can be described thus: Inhibition of human ERG at 10 uM by patch clamp assay. (Patch clamp records ionic current or voltage across a cell membrane.)
Data set [3] deals with T1, C-C chemokine receptor type 2. The data set can be described thus: Antagonist activity at CCR2 receptor in human whole blood assessed as inhibition of alexa-tagged MCP-induced effect 30 mins by flow cytometry. Format: functional, tissue-based.

hERG (KCNH2), sequence (Q12809 whole entry): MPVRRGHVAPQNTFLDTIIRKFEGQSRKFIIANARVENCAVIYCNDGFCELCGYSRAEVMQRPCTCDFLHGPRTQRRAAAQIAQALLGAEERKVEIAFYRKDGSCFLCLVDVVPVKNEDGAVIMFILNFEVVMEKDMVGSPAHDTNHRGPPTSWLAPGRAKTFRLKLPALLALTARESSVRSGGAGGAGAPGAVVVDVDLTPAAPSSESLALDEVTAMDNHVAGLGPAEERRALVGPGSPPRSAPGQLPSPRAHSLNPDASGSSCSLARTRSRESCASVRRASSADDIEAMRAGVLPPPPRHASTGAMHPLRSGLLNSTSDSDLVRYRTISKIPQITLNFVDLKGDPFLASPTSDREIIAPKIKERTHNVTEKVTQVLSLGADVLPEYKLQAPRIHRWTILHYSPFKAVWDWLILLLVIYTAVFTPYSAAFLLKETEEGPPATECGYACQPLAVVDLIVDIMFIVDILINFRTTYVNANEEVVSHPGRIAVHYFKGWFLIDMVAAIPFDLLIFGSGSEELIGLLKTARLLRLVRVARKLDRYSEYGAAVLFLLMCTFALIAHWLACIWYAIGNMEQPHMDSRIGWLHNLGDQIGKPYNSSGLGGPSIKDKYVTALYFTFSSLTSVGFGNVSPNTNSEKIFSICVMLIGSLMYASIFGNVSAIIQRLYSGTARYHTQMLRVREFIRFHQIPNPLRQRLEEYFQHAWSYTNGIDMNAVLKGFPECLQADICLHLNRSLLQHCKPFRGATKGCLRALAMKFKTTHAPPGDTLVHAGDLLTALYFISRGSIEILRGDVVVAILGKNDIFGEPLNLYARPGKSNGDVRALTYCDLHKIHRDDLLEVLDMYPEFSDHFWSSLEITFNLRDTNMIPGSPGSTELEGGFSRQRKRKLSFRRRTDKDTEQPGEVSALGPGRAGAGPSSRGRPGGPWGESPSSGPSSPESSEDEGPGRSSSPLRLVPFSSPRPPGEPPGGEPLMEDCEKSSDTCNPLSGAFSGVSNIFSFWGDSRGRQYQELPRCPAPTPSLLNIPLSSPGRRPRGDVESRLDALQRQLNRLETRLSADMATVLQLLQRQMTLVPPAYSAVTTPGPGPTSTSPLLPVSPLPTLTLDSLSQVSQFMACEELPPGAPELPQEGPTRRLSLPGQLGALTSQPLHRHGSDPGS
Voltage-gated inwardly rectifying potassium channel KCNH2, sequence (Q12809 whole entry): as above
T1 sequence (P41597 whole entry): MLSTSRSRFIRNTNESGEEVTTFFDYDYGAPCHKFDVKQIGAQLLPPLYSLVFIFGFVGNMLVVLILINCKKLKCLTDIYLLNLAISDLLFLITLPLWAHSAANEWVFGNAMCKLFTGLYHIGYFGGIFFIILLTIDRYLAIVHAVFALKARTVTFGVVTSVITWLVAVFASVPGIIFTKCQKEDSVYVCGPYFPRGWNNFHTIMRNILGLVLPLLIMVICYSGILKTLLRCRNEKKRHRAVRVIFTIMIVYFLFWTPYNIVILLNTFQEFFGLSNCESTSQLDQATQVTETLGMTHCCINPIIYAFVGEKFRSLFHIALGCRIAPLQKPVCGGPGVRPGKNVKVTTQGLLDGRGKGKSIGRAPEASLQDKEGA

Molecule `O=C(NCC(=O)N1CC[C@@H](N[C@H]2CC[C@@H](c3ccccc3)CC2)C1)c1cccc(C(F)(F)F)c1` yielded an IC50 in data set [1] of 0.86 µM.

As to `O=C(NCC(=O)N1CC[C@H](N[C@H]2CC[C@@H](c3ccccc3)CC2)C1)c1cccc(C(F)(F)F)c1`, the IC50 in data set [1] was 0.035 µM.

In turn, `CN([C@H]1CCN(C(=O)CNC(=O)c2cccc(C(F)(F)F)c2)C1)[C@H]1CC[C@@H](c2ccccc2)CC1` registered an IC50 in data set [1] of 0.084 µM.

In data set [1], `O=C(NCC(=O)N1CC[C@H](N[C@H]2CC[C@@](O)(c3ccccc3)CC2)C1)c1cccc(C(F)(F)F)c1` came in with an IC50 of 0.065 µM.

On to `COc1ccc([C@]2(O)CC[C@H](N[C@H]3CCN(C(=O)CNC(=O)c4cccc(C(F)(F)F)c4)C3)CC2)cn1`, for which the half-maximal inhibitory concentration (IC50) in data set [1] came out at 0.095 µM.

In the case of `O=C(NCC(=O)N1CC[C@H](N[C@H]2CC[C@@](O)(c3ccccn3)CC2)C1)c1cccc(C(F)(F)F)c1`, the IC50 in data set [2] is > 30 µM. Besides, testing at 10 µM at hERG (KCNH2) gave an inhibition of 34%.

In data set [1], `O=C(NCC(=O)N1CC[C@H](N[C@H]2CC[C@@](O)(c3nccs3)CC2)C1)c1cccc(C(F)(F)F)c1` displayed an IC50 of 0.018 µM.

For the molecule `Cc1ccc([C@]2(O)CC[C@H](N[C@H]3CCN(C(=O)CNC(=O)c4cccc(C(F)(F)F)c4)C3)CC2)nc1`, the IC50 in data set [2] was 24 µM. Further, testing at 10 µM on hERG (KCNH2) gave an inhibition of 71%.

Turning to `O=C(NCC(=O)N1CC[C@H](N[C@H]2CC[C@@](O)(c3ccc(-c4cccnc4)cn3)CC2)C1)c1cccc(C(F)(F)F)c1`, the IC50 in data set [2] was 30 µM.

With `O=C(NCC(=O)N1CC[C@H](N[C@H]2CC[C@@](O)(c3ccc(-c4cnccn4)cn3)CC2)C1)c1cccc(C(F)(F)F)c1`, the IC50 in data set [2] was > 30 µM. In addition, at 10 µM the inhibition against hERG (KCNH2) was 70%.

On to `O=C(NCC(=O)N1CC[C@H](N[C@H]2CC[C@@](O)(c3ccc(-c4nccs4)cn3)CC2)C1)c1cccc(C(F)(F)F)c1`, for which the IC50 in data set [2] is > 30 µM. Besides, the inhibition at 10 µM at hERG (KCNH2) was 85%.

For `O=C(C1CCN(c2cccc(C(F)(F)F)c2)CC1)N1CC[C@H](N[C@H]2CC[C@@](O)(c3ccc(-c4ncccn4)cn3)CC2)C1`, the IC50 in data set [1] worked out at 0.0036 µM; in data set [3], 0.037 µM; in data set [2], 9 µM.

For `O=C(C1CCN(c2cccc(C(F)(F)F)n2)CC1)N1CC[C@H](N[C@H]2CC[C@@](O)(c3ccc(-c4ncccn4)cn3)CC2)C1`, the IC50 in data set [1] worked out at 0.0045 µM; in data set [3], 0.088 µM.

Consider `O=C(C1CCN(c2cc(C(F)(F)F)ccn2)CC1)N1CC[C@H](N[C@H]2CC[C@@](O)(c3ccc(-c4ncccn4)cn3)CC2)C1`, for which the values for the IC50 in data set [1], in data set [3] and in data set [2] were 0.0033 µM, 0.012 µM and 28 µM, respectively.

As to `O=C(C1CCN(c2nccc(C(F)(F)F)n2)CC1)N1CC[C@H](N[C@H]2CC[C@@](O)(c3ccc(-c4ncccn4)cn3)CC2)C1`, the IC50 in data set [1] worked out at 0.0054 µM; in data set [3] it was 0.029 µM.

`O=C(C1CCN(c2cc(C(F)(F)F)ncn2)CC1)N1CC[C@H](N[C@H]2CC[C@@](O)(c3ccc(-c4ncccn4)cn3)CC2)C1`: the IC50 in data set [1] is 0.01 µM; in data set [3] it was 0.04 µM; in data set [2] it was > 30 µM.

Take `N#Cc1ccnc(N2CCC(C(=O)N3CC[C@H](N[C@H]4CC[C@@](O)(c5ccc(-c6ncccn6)cn5)CC4)C3)CC2)c1`: the results for the IC50 in data set [1] and in data set [3] were 0.011 µM and 0.033 µM, respectively.

Turning to `O=C(N1CC[C@H](N[C@H]2CC[C@@](O)(c3ccc(-c4ncccn4)cn3)CC2)C1)C1(O)CCN(c2cc(C(F)(F)F)ccn2)CC1`, the results for the IC50 in data set [1], in data set [3] and in data set [2] were 0.0033 µM, 0.033 µM and > 30 µM, respectively.
